“And” between values parts separate entries of the source, which are not always exact repeats. Identical values can stand only once. After the bases stand the sugars from the 5' end (letter, count) and the backbone: PS all phosphorothioate, else s phosphorothioate and o phosphodiester by linkage. Methylation of C is not given here. e = 2'-O-(2-methoxyethyl) (MOE); k = constrained ethyl (cEt); d = 2'-deoxy (DNA)
What follows are sequences tested against MALAT1. Details: ASO, A431, 0.005 µM.

Sequence	target mRNA inhibition
CCCGCCTCAGTTACAC (sugars k3 d10 k3, PS)	4%
GGGTACTTCAAGCATT (sugars k3 d10 k3, PS)	43%
TCCCATCACTGAAGCC (sugars k3 d10 k3, PS)	44%
AGTGTTCCTGCATGTA (sugars k3 d10 k3, PS)	31%
GAATCTCAGGGTTATG (sugars k3 d10 k3, PS)	57% and 76%
ACCTTGAAACCGATTA (sugars k3 d10 k3, PS)	45%
TAAGGACAGCTAAGAT (sugars k3 d10 k3, PS)	24%
CCCAACTGCTTGCAGT (sugars k3 d10 k3, PS)	9%
CACCTTCCGCCGCCTT (sugars k3 d10 k3, PS)	-25%
ATCATAATCTCCCACC (sugars k3 d10 k3, PS)	20%
ACTTCCGTTACGAAAG (sugars k3 d10 k3, PS)	1%
TTACACCTCAGTACGA (sugars k3 d10 k3, PS)	15%
TAGGTATGAGCTTCAG (sugars k3 d10 k3, PS)	4%
CTAAAGGCTTCAGTCC (sugars k3 d10 k3, PS)	23%
AACCTGGGCTCCCGGA (sugars k3 d10 k3, PS)	30%
AACAATCACTACTCCA (sugars k3 d10 k3, PS)	26%
GTAATTACTCTTGATC (sugars k3 d10 k3, PS)	47%
AGGCTTTAAATGACGC (sugars k3 d10 k3, PS)	-11%
TCTATAGTCTGAAGAA (sugars k3 d10 k3, PS)	26%
GGCTCATATTTAACTT (sugars k3 d10 k3, PS)	20%
TGCCTTTAGGATTCTAGACA (sugars e5 d10 e5, PS)	39% and 51%
GGTTTTAGTCACTGGA (sugars k3 d10 k3, PS)	85% and 95%
CAAACTACACATGCAG (sugars k3 d10 k3, PS)	6%

Sequence	target mRNA inhibition
AATGCATTCTAATAGC (sugars k3 d10 k3, PS)	17%
ACAGAGCTGCTCCCCG (sugars k3 d10 k3, PS)	18%
GAAGCATACCTTAACA (sugars k3 d10 k3, PS)	5%
AGGGTTATGCTTATTC (sugars k3 d10 k3, PS)	63% and 60%
TACCTTAACATCTTGT (sugars k3 d10 k3, PS)	14%
GAAGTGTTTACACTGC (sugars k3 d10 k3, PS)	11%
CCACAGGAACAAGTCC (sugars k3 d10 k3, PS)	-5%
GTGTTTACACTGCTCT (sugars k3 d10 k3, PS)	6%
TCAAGGATGTATATAG (sugars k3 d10 k3, PS)	6%
TACTCTAATCACTGTC (sugars k3 d10 k3, PS)	15%
AAGGCTTCAGTCCCCT (sugars k3 d10 k3, PS)	14%
GATTAAAGTGTGATAG (sugars k3 d10 k3, PS)	16%
TCGGTTAAAAATAGGT (sugars k3 d10 k3, PS)	16%
TCTCCCACCTGTCTAA (sugars k3 d10 k3, PS)	23%
AAGCACTCATATGCAA (sugars k3 d10 k3, PS)	-2%
TGCTGATAAACTCACT (sugars k3 d10 k3, PS)	46%
ACCCACAAACTTGCCA (sugars k3 d10 k3, PS)	-2%
ACCAACCCCCAGTTCA (sugars k3 d10 k3, PS)	28%
GCCTGGTTAGGTATGA (sugars k3 d10 k3, PS)	21%
GTGTTCGCAGACAAAG (sugars k3 d10 k3, PS)	10%
CCAAGACAGCCACACG (sugars k3 d10 k3, PS)	10%
AATTTATAGACCCCTG (sugars k3 d10 k3, PS)	4%
